Reference: publication PMC12301304 (Frontiers in Pharmacology, 2025)

Legend:
[1] = molecular target: T1, CYP2b1 (Rattus norvegicus, UniProt P00176); design: from tissue; host or cells: live male Sprague-Dawley rats (whole animal, mainly liver); details: in vivo
T1 sequence (P00176 1-491): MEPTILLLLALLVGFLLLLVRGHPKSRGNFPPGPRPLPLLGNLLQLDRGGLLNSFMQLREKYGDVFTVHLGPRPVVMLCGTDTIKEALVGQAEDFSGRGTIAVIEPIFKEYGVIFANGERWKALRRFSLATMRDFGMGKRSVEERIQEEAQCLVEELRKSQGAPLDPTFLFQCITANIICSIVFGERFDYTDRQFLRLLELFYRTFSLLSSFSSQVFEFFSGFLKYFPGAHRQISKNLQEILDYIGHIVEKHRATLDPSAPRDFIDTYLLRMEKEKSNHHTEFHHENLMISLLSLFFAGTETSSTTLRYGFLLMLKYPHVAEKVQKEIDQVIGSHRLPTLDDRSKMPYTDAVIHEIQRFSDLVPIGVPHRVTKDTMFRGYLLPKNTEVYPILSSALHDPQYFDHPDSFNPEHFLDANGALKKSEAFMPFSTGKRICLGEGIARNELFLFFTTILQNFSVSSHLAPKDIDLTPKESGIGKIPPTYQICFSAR
Procedure: (§4) The effect of the Zhicaowu–Hezi combination on CYP450 enzymes in rats was evaluated by examining the pharmacokinetics of theophylline (CYP1a2), metoprolol (CYP2d2), bupropion (CYP2b1), omeprazole (CYP2c13), chlorzoxazone (CYP2e1), testosterone (CYP3a1), and diclofenac (CYP2c11).
(§5) The collected blood was placed in sodium heparin-treated centrifuge tubes and centrifuged at 4°C for 10 min at 3,000 RPM. […] After 10 min of sedimentation, the supernatant was extracted through a 0.22-μm microporous membrane, 20 μL of which was injected into HPLC. The pharmacokinetic parameters of each probe drug were calculated using the non-atrial compartment model in Drug and Statistics software (DAS, 3.0; Shanghai, China).

[2] = molecular target: T2, CYP3a1 (Rattus norvegicus, UniProt P04800); design: from tissue; host or cells: live male Sprague-Dawley rats (whole animal, liver and intestine); details: in vivo
T2 sequence (P04800 1-504): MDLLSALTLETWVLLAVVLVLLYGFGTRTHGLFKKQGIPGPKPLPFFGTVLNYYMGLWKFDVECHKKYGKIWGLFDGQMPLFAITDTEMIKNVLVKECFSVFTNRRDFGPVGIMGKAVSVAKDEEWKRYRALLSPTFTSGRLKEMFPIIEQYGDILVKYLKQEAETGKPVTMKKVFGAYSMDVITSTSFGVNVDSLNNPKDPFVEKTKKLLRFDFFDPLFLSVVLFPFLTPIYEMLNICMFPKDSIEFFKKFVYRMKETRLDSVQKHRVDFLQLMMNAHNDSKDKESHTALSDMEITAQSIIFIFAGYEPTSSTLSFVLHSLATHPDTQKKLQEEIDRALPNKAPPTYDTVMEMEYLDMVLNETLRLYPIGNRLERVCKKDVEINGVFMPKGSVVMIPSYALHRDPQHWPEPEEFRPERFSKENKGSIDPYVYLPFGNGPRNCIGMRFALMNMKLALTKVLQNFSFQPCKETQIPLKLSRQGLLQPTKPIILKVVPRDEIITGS
Procedure: as §4, §5

[3] = molecular target: T1, CYP2b1; experiment: RLM incubation: metabolic clearance rate of bupropion (CYP2b1); details: RLM 0.5 mg/mL, 30 min 37°C, inhibitor added, blank control 7.92 ± 0.60, n = 3
Procedure: (§1) The effect of the Zhicaowu–Hezi combination on CYP450 enzymes in RLM was evaluated by assessing the metabolic clearance rates of theophylline, metoprolol, bupropion, mephenytoin (CYP2c13), chlorzoxazone, testosterone, and diclofenac.
(§2) On day 15, the rats were humanely euthanized, and liver tissues were excised for microsomal preparation. […] Livers from each group were repeatedly washed with ice-cold phosphate buffered saline (PBS). […] Subsequently, they were blotted dry with filter paper, weighed, and homogenized by adding 4 mL of ice-cold PBS per gram of liver tissue. The mixture was homogenized in an ice bath. The liver homogenate was subjected to centrifugation at 10,000 RPM for 20 min at 4°C. The resulting supernatant was then combined with an ice-cold 88-mmol/L CaCl2 solution at a 1:1 ratio, and the mixture was homogenized in an ice bath for 5 min. The resulting solution was then centrifuged at 25,000 × g for 30 min at 4°C. The supernatant was discarded and the precipitate was repeatedly resuspended in PBS–20% glycerol buffer. The precipitate was then stored in a separate bottle at −80°C for backup. The protein concentration of the prepared RLM was determined using a bicinchoninic acid protein assay kit.
(§3) Preincubation was conducted for 5 min in a water bath at 37°C, after which NADPH (1 mmol/L) was added, and incubation continued for 30 min at 37°C. Once the incubation period elapsed, the reaction was terminated by the addition of an ice-cold IS-containing acetonitrile solution. The samples were vortexed for 2 min and centrifuged at 15,000 RPM for 10 min. The resulting supernatant was filtered through a 0.22-μm organic microporous membrane, and 20 μL of the filtered solution was injected into the HPLC assay. To prevent the organic solvents from inducing or inhibiting the enzyme, the volume fraction of organic solvents in the entire incubation system was maintained at 1%. […] The inhibitor group was added with corresponding inhibitor, while all other procedures remained identical.

[4] = molecular target: T3, CYP2c13 (Rattus norvegicus, UniProt P20814); experiment: RLM incubation: metabolic clearance rate of mephenytoin (CYP2c13); details: RLM 0.5 mg/mL, 30 min 37°C, inhibitor added, blank control 15.97 ± 0.68, n = 3
T3 sequence (P20814 1-490): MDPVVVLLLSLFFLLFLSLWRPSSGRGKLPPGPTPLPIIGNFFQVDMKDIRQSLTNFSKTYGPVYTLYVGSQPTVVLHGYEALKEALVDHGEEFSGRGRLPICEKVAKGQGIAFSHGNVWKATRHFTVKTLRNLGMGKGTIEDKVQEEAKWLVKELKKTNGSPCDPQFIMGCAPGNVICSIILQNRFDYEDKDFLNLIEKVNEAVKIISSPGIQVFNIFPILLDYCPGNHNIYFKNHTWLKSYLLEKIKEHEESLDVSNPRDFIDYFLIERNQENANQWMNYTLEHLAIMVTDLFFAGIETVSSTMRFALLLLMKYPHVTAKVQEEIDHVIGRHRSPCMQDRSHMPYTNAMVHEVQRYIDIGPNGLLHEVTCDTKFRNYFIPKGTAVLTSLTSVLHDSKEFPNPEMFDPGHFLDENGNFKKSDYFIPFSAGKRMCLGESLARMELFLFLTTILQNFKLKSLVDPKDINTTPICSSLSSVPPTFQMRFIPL
Procedure: as §1, §2, §3

| Structure (SMILES) | bupropion AUC(0-t) [1] | bupropion AUC(0-∞) [1] | bupropion CLz/F [1] | bupropion Cmax [1] | bupropion t1/2 z [1] | testosterone AUC(0-t) [2] | testosterone AUC(0-∞) [2] | testosterone CLz/F [2] | testosterone Cmax [2] | testosterone t1/2 z [2] | CYP2b1(%) metabolic clearance rate of probe drug [3] | CYP2c13(%) metabolic clearance rate of probe drug [4] |
| --- | --- | --- | --- | --- | --- | --- | --- | --- | --- | --- | --- | --- |
| CCC1(c2ccccc2)C(=O)NC(=O)NC1=O [P, phenobarbital sodium] | 13249 ± 1396 ng·h/mL | 13714 ± 1057 ng·h/mL | 7.53418 ± 1.2563 mL/min/kg | 1151 ± 138 ng/mL | 15.564 ± 0.555 h | 756 ± 48 ng·h/mL | 907 ± 93 ng·h/mL | 6,479.436 ± 351.908 mL/h/kg | 107 ± 15 ng/mL | 7.394 ± 0.958 h |  |  |
| S=P(N1CC1)(N1CC1)N1CC1 [Thiotepa] |  |  |  |  |  |  |  |  |  |  | 2.24 ± 0.16 % | 14.43 ± 0.36% |
| O=c1cc(-c2ccccc2)oc2c1ccc1ccccc12 [α-naphthoflavone] |  |  |  |  |  |  |  |  |  |  | 8.00 ± 0.97% | 16.65 ± 3.04% |
